Values quoted from earlier work in patent US20080317753A1, “SELECTING PATIENTS FOR THERAPY WITH A HER INHIBITOR” (GENENTECH, INC., priority 2004, published 2008).
Counter-ions that a name gives are not always drawn.

Tests used:
[1] = single agent
[2] = system: HER2-overexpressing metastatic breast cancers; conditions: patients with HER2-overexpressing metastatic breast cancers with extensive prior anti-cancer therapy
[3] = combined with gemcitabine in several combinations of different chemotherapies, phase II trials

Compound	nausea and vomiting, combined incidence [1] [%]	clinical activity [2]	tolerability [3]
Nc1ccn([C@@H]2O[C@H](CO)[C@@H](O)C2(F)F)c(=O)n1 [gemcitabine, 2′-deoxy-2′,2′-difluorocytidine monohydrochloride (b-isomer)]	69	–	–
trastuzumab: recombinant humanized version of murine HER2 antibody 4D5; light and heavy chain sequences SEQ ID NOS. 15 and 16	–	clinically active	well tolerated with no observed cardiac or unexpected toxicities
